Data on three compounds can be found in ChEMBL document CHEMBL1133308, “A novel inhibitor of human telomerase derived from 10H-indolo[3,2-b]quinoline” (Bioorg Med Chem Lett, 2000).

Assay [1] in a line: Compound was evaluated for cytotoxicity against human ovarian cancer cell SKOV-3. It counts as functional, cell-based. The note with it: Cancer cell lines.
Assay [2] can be described thus: Compound was evaluated for cytotoxicity against human ovarian cancer cell A2780. Type of assay: functional, cell-based. The note with it: Cancer cell lines.
Assay [3] in a line: Compound was evaluated for cytotoxicity against human ovarian cancer cell A2780R. It counts as functional, cell-based. Particulars: Cancer cell lines.
For assay [4], the target named is Telomerase reverse transcriptase (Homo sapiens, UniProt O14746). The assay can be described thus: Inhibitory activity against human ovarian cancer cell (A2780 cells) Telomerase. It counts as cell-based.
Chain of Telomerase reverse transcriptase (O14746 whole entry): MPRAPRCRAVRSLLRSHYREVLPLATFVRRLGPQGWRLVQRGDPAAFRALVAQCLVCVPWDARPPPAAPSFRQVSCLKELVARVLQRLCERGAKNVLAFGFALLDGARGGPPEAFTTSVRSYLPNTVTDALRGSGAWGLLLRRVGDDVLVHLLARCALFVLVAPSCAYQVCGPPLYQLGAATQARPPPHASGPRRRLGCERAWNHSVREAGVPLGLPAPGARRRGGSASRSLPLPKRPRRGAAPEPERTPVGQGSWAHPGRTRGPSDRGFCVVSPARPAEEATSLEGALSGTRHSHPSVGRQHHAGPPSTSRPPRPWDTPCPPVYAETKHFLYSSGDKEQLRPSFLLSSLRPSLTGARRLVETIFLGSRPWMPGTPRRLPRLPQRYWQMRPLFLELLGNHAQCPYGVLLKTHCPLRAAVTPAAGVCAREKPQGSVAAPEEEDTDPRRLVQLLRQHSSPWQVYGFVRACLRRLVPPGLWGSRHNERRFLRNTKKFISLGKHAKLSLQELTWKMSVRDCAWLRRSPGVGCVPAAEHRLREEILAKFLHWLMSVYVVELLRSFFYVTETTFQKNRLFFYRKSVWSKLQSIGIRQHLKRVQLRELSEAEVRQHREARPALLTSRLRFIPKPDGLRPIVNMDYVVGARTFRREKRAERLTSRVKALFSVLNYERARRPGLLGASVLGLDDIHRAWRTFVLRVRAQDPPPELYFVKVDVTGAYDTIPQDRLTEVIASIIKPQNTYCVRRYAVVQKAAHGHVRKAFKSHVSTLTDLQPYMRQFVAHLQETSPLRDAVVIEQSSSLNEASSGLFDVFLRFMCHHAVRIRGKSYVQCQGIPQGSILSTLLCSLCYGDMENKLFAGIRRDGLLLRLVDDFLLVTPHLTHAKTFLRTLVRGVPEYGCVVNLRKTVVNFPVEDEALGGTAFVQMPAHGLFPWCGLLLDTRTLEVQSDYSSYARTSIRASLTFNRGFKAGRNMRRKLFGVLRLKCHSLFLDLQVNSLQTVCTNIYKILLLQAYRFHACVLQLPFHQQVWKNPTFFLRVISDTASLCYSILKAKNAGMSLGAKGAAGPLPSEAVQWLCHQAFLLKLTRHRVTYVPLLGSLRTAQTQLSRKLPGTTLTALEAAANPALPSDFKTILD
Assay [5] in a line: Compound was evaluated for cytotoxicity against human ovarian cancer cell CHI. It counts as functional, cell-based. The note with it: Cancer cell lines.
Assay [6] is described as follows: Compound was evaluated for cytotoxicity against human ovarian cancer cell CHI R. Type of assay: functional, cell-based. Particulars: Cancer cell lines.

On to `CN(C)CCc1ccc2nc3c4ccccc4n(CCN(C)C)c3cc2c1`, for which the half-maximal inhibitory concentration (IC50) (as a rule, the concentration at which inhibition is half-maximal) in assay [1] stood at 6.3 µM; in assay [2], 12.5 µM; in assay [3], 10.5 µM; in assay [4], 16 µM; in assay [5], 8.4 µM; in assay [6], 12.5 µM.

Consider `CCN(CC)CCOc1ccc2c(c1)OC1C(=O)c3ccccc3C(=O)C21` (stereo not given), for which the IC50 came out at 3.6 µM in assay [1], 0.15 µM in assay [2], 7 µM in assay [4] and 0.18 µM in assay [5].

With `c1ccc2nc3c(cc2c1)[nH]c1ccccc13` [QUINDOLINE], the IC50 worked out at 66 µM in assay [1]; 21.5 µM in assay [2]; 24.5 µM in assay [3]; 15.5 µM in assay [5]; 30 µM in assay [6].
